Experimental data taken from PubChem BioAssay AID2060501 (Molecular Pharmacology Branch, DTP, NCI, 2025).
pIC50: −log10 of the molar value.

Test system: 282377-053-R-J1-PDC complex spheroids, viability
Assay: Anticancer human tumor 282377-053-R-J1-PDC patient-derived colon adenocarcinoma cell line growth inhibition [GQUAD]
Conditions: for pIC50: curve of first compound; for viability, T/C: stronger effect = lower value
Outline: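 Tumor cells were grown as complex spheroids with HUVEC endothelial cells and mesenchymal stem cells as stroma. G-quadruplex stabilizers were combined with targeted agents over half-log dilutions from near the clinical Cmax, or from 10 microM.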

[1] = second compound 0.0316 µM, first compound 0.0316 µM
[2] = second compound 0.0316 µM, first compound 0.316 µM
[3] = second compound 0.1 µM, first compound 0.0316 µM
[4] = second compound 0.1 µM, first compound 0.316 µM
[5] = second compound 0.316 µM, first compound 0.0316 µM
[6] = second compound 0.316 µM, first compound 0.316 µM
[7] = second compound 1 µM, first compound 0.0316 µM
[8] = second compound 1 µM, first compound 0.316 µM
[9] = second compound 3.16 µM, first compound 0.0316 µM
[10] = second compound 3.16 µM, first compound 0.316 µM
[11] = second compound 10 µM, first compound 0.0316 µM
[12] = second compound 10 µM, first compound 0.316 µM
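Also: spheroids exposed to compounds for 7 days before readout.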
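For viability, T/C in this document: percent of vehicle DMSO control viability with 100% = untreated-like growth.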

Compound: Cc1cccc(N(C)C(=O)C2C(O)CCN2c2nc(C)cc(C(F)(F)F)c2C#N)c1 (centres undefined) + Cc1cnc(CNC(=O)c2c(=O)c3ccc(N4CCCN(C)CC4)nc3n3c2sc2ccccc23)cn1
- pIC50 (second compound 0.0316 µM): < 5.00
- pIC50 (second compound 0.1 µM): < 5.00
- pIC50 (second compound 0.316 µM): < 5.00
- pIC50 (second compound 1 µM): < 5.00
- pIC50 (second compound 3.16 µM): < 5.00
- pIC50 (second compound 10 µM): 5.90
- viability, T/C [1]: 114%
- viability, T/C (second compound 0.0316 µM, first compound 0.1 µM): 105%
- viability, T/C [2]: 108%
- viability, T/C (second compound 0.0316 µM, first compound 1 µM): 80.3%
- viability, T/C (second compound 0.0316 µM, first compound 3.16 µM): 95.1%
- viability, T/C (second compound 0.0316 µM, first compound 10 µM): 93.1%
- viability, T/C [3]: 96.1%
- viability, T/C (second compound 0.1 µM, first compound 0.1 µM): 99.3%
- viability, T/C [4]: 95.5%
- viability, T/C (second compound 0.1 µM, first compound 1 µM): 88%
- viability, T/C (second compound 0.1 µM, first compound 3.16 µM): 88.8%
- viability, T/C (second compound 0.1 µM, first compound 10 µM): 93.6%
- viability, T/C [5]: 95%
- viability, T/C (second compound 0.316 µM, first compound 0.1 µM): 85.6%
- viability, T/C [6]: 98.8%
- viability, T/C (second compound 0.316 µM, first compound 1 µM): 77%
- viability, T/C (second compound 0.316 µM, first compound 3.16 µM): 93.4%
- viability, T/C (second compound 0.316 µM, first compound 10 µM): 79.7%
- viability, T/C [7]: 66.3%
- viability, T/C (second compound 1 µM, first compound 0.1 µM): 60.6%
- viability, T/C [8]: 64.1%
- viability, T/C (second compound 1 µM, first compound 1 µM): 60.3%
- viability, T/C (second compound 1 µM, first compound 3.16 µM): 65.9%
- viability, T/C (second compound 1 µM, first compound 10 µM): 67.1%
- viability, T/C [9]: 54.6%
- viability, T/C (second compound 3.16 µM, first compound 0.1 µM): 51%
- viability, T/C [10]: 56.2%
- viability, T/C (second compound 3.16 µM, first compound 1 µM): 58.8%
- viability, T/C (second compound 3.16 µM, first compound 3.16 µM): 56.6%
- viability, T/C (second compound 3.16 µM, first compound 10 µM): 58.5%
- viability, T/C [11]: 50.6%
- viability, T/C (second compound 10 µM, first compound 0.1 µM): 53.6%
- viability, T/C [12]: 50.6%
- viability, T/C (second compound 10 µM, first compound 1 µM): 52.2%
- viability, T/C (second compound 10 µM, first compound 3.16 µM): 46.4%
- viability, T/C (second compound 10 µM, first compound 10 µM): 35.5%

Compound: Cn1ncnc1[C@H]1c2n[nH]c(=O)c3cc(F)cc(c23)N[C@@H]1c1ccc(F)cc1 + Cc1cnc(CNC(=O)c2c(=O)c3ccc(N4CCCN(C)CC4)nc3n3c2sc2ccccc23)cn1
- pIC50 (second compound 0.0316 µM): < 6.50
- pIC50 (second compound 0.1 µM): < 6.50
- pIC50 (second compound 0.316 µM): < 6.50
- pIC50 (second compound 1 µM): 6.55
- pIC50 (second compound 3.16 µM): 7.49
- pIC50 (second compound 10 µM): > 9.00
- viability, T/C (second compound 0.0316 µM, first compound 0.000999 µM): 111%
- viability, T/C (second compound 0.0316 µM, first compound 0.00316 µM): 87.7%
- viability, T/C (second compound 0.0316 µM, first compound 0.00999 µM): 104%
- viability, T/C [1]: 107%
- viability, T/C (second compound 0.0316 µM, first compound 0.0999 µM): 95.9%
- viability, T/C [2]: 102%
- viability, T/C (second compound 0.1 µM, first compound 0.000999 µM): 109%
- viability, T/C (second compound 0.1 µM, first compound 0.00316 µM): 101%
- viability, T/C (second compound 0.1 µM, first compound 0.00999 µM): 98.7%
- viability, T/C [3]: 94%
- viability, T/C (second compound 0.1 µM, first compound 0.0999 µM): 115%
- viability, T/C [4]: 116%
- viability, T/C (second compound 0.316 µM, first compound 0.000999 µM): 86.1%
- viability, T/C (second compound 0.316 µM, first compound 0.00316 µM): 84.1%
- viability, T/C (second compound 0.316 µM, first compound 0.00999 µM): 88.4%
- viability, T/C [5]: 93.2%
- viability, T/C (second compound 0.316 µM, first compound 0.0999 µM): 79%
- viability, T/C [6]: 71.9%
- viability, T/C (second compound 1 µM, first compound 0.000999 µM): 65.7%
- viability, T/C (second compound 1 µM, first compound 0.00316 µM): 66.1%
- viability, T/C (second compound 1 µM, first compound 0.00999 µM): 52.5%
- viability, T/C [7]: 62.5%
- viability, T/C (second compound 1 µM, first compound 0.0999 µM): 51.5%
- viability, T/C [8]: 49.4%
- viability, T/C (second compound 3.16 µM, first compound 0.000999 µM): 56.6%
- viability, T/C (second compound 3.16 µM, first compound 0.00316 µM): 47.2%
- viability, T/C (second compound 3.16 µM, first compound 0.00999 µM): 51.5%
- viability, T/C [9]: 49.5%
- viability, T/C (second compound 3.16 µM, first compound 0.0999 µM): 52.3%
- viability, T/C [10]: 46.2%
- viability, T/C (second compound 10 µM, first compound 0.000999 µM): 43.3%
- viability, T/C (second compound 10 µM, first compound 0.00316 µM): 44.1%
- viability, T/C (second compound 10 µM, first compound 0.00999 µM): 52.4%
- viability, T/C [11]: 45.1%
- viability, T/C (second compound 10 µM, first compound 0.0999 µM): 51%
- viability, T/C [12]: 46.7%
